From DBAASP come the findings set out here.

In brackets after ≈: the same amount, converted by molar mass.

Test systems include Enterobacter cloacae; Escherichia coli 1; Escherichia coli ML-35p; Escherichia coli; Klebsiella aerogenes; Pseudomonas aeruginosa; Staphylococcus aureus; Bacillus subtilis; Candida albicans; Micrococcus luteus; Proteus mirabilis; Saccharomyces cerevisiae; Salmonella typhimurium; Serratia marcescens; Shigella dysenteriae; Bacillus megaterium; Escherichia coli ML-35; Escherichia coli 078; Escherichia coli K88; Escherichia coli K99; Escherichia coli UB1005; Escherichia coli HB101.

Assay in all cases: ≥ marks a high value that may be exact or a test limit, other limits are often not marked, values filed in µg/mL are converted to µM
Assay [1] deals with Escherichia coli ATCC 25922.
Assay [2] has as its system Pseudomonas aeruginosa ATCC 27853.
Assay [3] deals with Pseudomonas aeruginosa PAO1.
Assay [4] concerns Staphylococcus aureus ATCC 25923.
The test system of assay [5] is Staphylococcus epidermidis.
The subject of assay [6] is Salmonella enterica subsp. enterica serovar Typhimurium ATCC 14028.
Assay [7] has as its system Corynebacterium glutamicum ATCC 13032.
Assay [8] deals with Staphylococcus aureus ATCC 9144.
Assay [9] has as its system Staphylococcus aureus ATCC 33591.
Assay [10] has as its system Staphylococcus epidermidis ATCC 35984.
For assay [11], the system named is Bacillus subtilis CMCC 63501.
In assay [12] the test system is Enterococcus faecalis ATCC 29212.
In assay [13] the test system is Salmonella enterica subsp. enterica serovar Pullorum C79-13.
Assay [14] concerns Salmonella enterica subsp. enterica serovar Typhimurium C77-31.
In assay [15] the test system is Staphylococcus aureus ATCC 29213.
For assay [16], the system named is Staphylococcus epidermidis ATCC 12228.

As for `CC(C)C[C@H](NC(=O)[C@H](CCCCN)NC(=O)[C@H](CCCCN)NC(=O)[C@H](Cc1ccccc1)NC(=O)[C@H](Cc1ccccc1)NC(=O)[C@H](CCCCN)NC(=O)[C@H](CCCCN)NC(=O)[C@@H](N)Cc1ccccc1)C(=O)N[C@@H](CCCCN)C(=O)N[C@@H](CC(N)=O)C(=O)N[C@@H](CO)C(=O)N[C@H](C(=O)N[C@@H](CCCCN)C(=O)N[C@@H](CCCCN)C(=O)N[C@@H](CCCN=C(N)N)C(=O)O)C(C)C` [FKKFFKKLKNSVKKR], the MIC was determined as 4.15 µM (≈ 8 µg/mL) with Enterobacter cloacae; 2.6 µM (≈ 5 µg/mL) with Escherichia coli 1; 6.75 µM (≈ 13 µg/mL) in assay [1]; 2.6 µM (≈ 5 µg/mL) against Escherichia coli ML-35p; 6.23 µM (≈ 12 µg/mL) in the assay on Escherichia coli; 8.82 µM (≈ 17 µg/mL) in the assay with Klebsiella aerogenes. In addition, the MIC worked out at 4.15 µM (≈ 8 µg/mL) in assay [2]; 3.63 µM (≈ 7 µg/mL) in [3]; 3.63 µM (≈ 7 µg/mL) against Pseudomonas aeruginosa; 21.3 µM (≈ 41 µg/mL) in assay [4]; 3.63 µM (≈ 7 µg/mL) against Staphylococcus aureus.
With `CC[C@H](C)[C@H](NC(=O)CN)C(=O)N[C@@H](CC(C)C)C(=O)N[C@@H](CC(=O)O)C(=O)N[C@H](C(=O)N[C@@H](CC(C)C)C(=O)N[C@@H](CCCCN)C(=O)N[C@@H](CCC(N)=O)C(=O)N[C@@H](Cc1ccccc1)C(=O)N[C@@H](C)C(=O)N[C@@H](CCCCN)C(=O)NCC(=O)N[C@H](C(=O)NCC(=O)N[C@@H](CCCCN)C(=O)N[C@@H](CC(=O)O)C(=O)N[C@@H](CC(C)C)C(=O)N[C@H](C(=O)N[C@@H](CCCCN)C(=O)NCC(=O)N[C@@H](C)C(=O)N[C@@H](C)C(=O)N[C@@H](CCC(N)=O)C(=O)NCC(=O)O)C(C)C)C(C)C)[C@@H](C)O` [GILDTLKQFAKGVGKDLVKGAAQG], the MIC with Bacillus subtilis is not below 41.4 µM; against Candida albicans, more than 41.4 µM; with Escherichia coli it was 20.7 µM (≈ 50 µg/mL); against Micrococcus luteus it was 2.07 µM (≈ 5 µg/mL); in the assay with Proteus mirabilis, 20.7 µM (≈ 50 µg/mL); in the assay on Pseudomonas aeruginosa, 20.7 µM (≈ 50 µg/mL). The MIC in the assay on Saccharomyces cerevisiae was 20.7 µM (≈ 50 µg/mL); in the assay on Salmonella typhimurium, not below 41.4 µM; in the assay on Serratia marcescens, not below 41.4 µM; against Shigella dysenteriae, 20.7 µM (≈ 50 µg/mL); in assay [5], 31.1 µM (≈ 75 µg/mL).
In the case of `CC[C@H](C)[C@H](NC(=O)[C@H](CCCCN)NC(=O)[C@H](CCCCN)NC(=O)[C@H](CC(C)C)NC(=O)[C@H](CCCCN)NC(=O)[C@H](CCC(=O)O)NC(=O)[C@H](CCCCN)NC(=O)[C@@H](NC(=O)[C@H](CCCCN)NC(=O)[C@H](CC(N)=O)NC(=O)[C@H](CCCN=C(N)N)NC(=O)[C@H](C)NC(=O)[C@H](CCCCN)NC(=O)[C@H](CCCN=C(N)N)NC(=O)[C@H](CC(C)C)NC(=O)[C@H](CCCN=C(N)N)NC(=O)[C@H](CCCCN)NC(=O)[C@H](CCCN=C(N)N)NC(=O)[C@H](CC(C)C)NC(=O)CN)[C@@H](C)CC)C(=O)O` [GLRKRLRKARNKIKEKLKKI], the MIC against Bacillus megaterium is 8 µM (≈ 19.8 µg/mL); in assay [1], 4 µM (≈ 9.91 µg/mL); with Escherichia coli ML-35 it was 4 µM (≈ 9.91 µg/mL); in [2], 1 µM (≈ 2.48 µg/mL); in assay [6] it was 16 µM (≈ 39.6 µg/mL); in assay [4] it was 8 µM (≈ 19.8 µg/mL).
Consider `CC(C)[C@H](NC(=O)[C@H](CCCCN)NC(=O)[C@H](C)NC(=O)[C@@H](NC(=O)[C@@H](NC(=O)[C@H](CCCN=C(N)N)NC(=O)[C@H](CCCN=C(N)N)NC(=O)[C@H](Cc1c[nH]c2ccccc12)NC(=O)[C@H](Cc1c[nH]c2ccccc12)NC(=O)CN)[C@@H](C)O)C(C)C)C(=O)N[C@@H](CCCN=C(N)N)C(=O)N[C@@H](CC(N)=O)C(=O)N[C@@H](C)C(=O)NCC(=O)N[C@@H](CCCN=C(N)N)C(=O)N[C@@H](CCCCN)C(N)=O` [GWWRRTVAKVRNAGRK], for which the MIC was 0.8 µM (≈ 1.55 µg/mL) in [7], 3.1 µM (≈ 6.01 µg/mL) in [1], 3.1 µM (≈ 6.01 µg/mL) in [2] and 12.5 µM (≈ 24.3 µg/mL) in assay [8].
For the molecule `CC[C@H](C)[C@H](N)C(=O)NCC(=O)N[C@@H](CCCCN)C(=O)N[C@@H](Cc1ccccc1)C(=O)N[C@@H](CC(C)C)C(=O)N[C@@H](CCCCN)C(=O)N[C@@H](CCCCN)C(=O)N[C@@H](C)C(=O)N[C@@H](CCCCN)C(=O)N[C@@H](CCCCN)C(=O)N[C@@H](Cc1ccccc1)C(=O)NCC(N)=O` [IGKFLKKAKKFG], the MIC in [2] was 133 µM (≈ 181 µg/mL); in assay [4], more than 375 µM; in [9] it was not below 375 µM; in [10], not below 188 µM.
Consider `NC(=O)[C@@H]1CCCN1C(=O)[C@H](CCCN=C(N)N)NC(=O)[C@H](CS)NC(=O)[C@H](Cc1ccccc1)NC(=O)[C@H](CCCN=C(N)N)NC(=O)[C@H](CCCN=C(N)N)NC(=O)[C@H](CCCN=C(N)N)NC(=O)[C@H](CS)NC(=O)[C@H](CCCN=C(N)N)NC(=O)[C@@H]1CCCN1` [PRCRRRFCRP], for which the MIC in assay [11] is 16 µM (≈ 21.5 µg/mL); in assay [12] it was more than 128 µM; in assay [1] it was 16 µM (≈ 21.5 µg/mL); in assay [2], more than 128 µM; in assay [13] it was not below 128 µM; in assay [14], not below 128 µM. The MIC in [15] and in [16] was more than 128 µM each time.
Consider `CC[C@H](C)[C@H](NC(=O)[C@H](Cc1c[nH]c2ccccc12)NC(=O)[C@H](CCCCN)NC(=O)[C@H](Cc1c[nH]c2ccccc12)NC(=O)[C@@H](NC(=O)[C@H](CCCCN)NC(=O)CNC(=O)[C@@H](NC(=O)[C@H](CCCCN)NC(=O)[C@H](CCCCN)NC(=O)[C@H](Cc1c[nH]c2ccccc12)NC(=O)[C@@H](N)CCCN=C(N)N)[C@@H](C)CC)C(C)C)C(N)=O` [RWKKIGKVWKWI], for which the MIC in assay [11] was determined as 8 µM (≈ 13 µg/mL); in assay [12], 32 µM (≈ 52.1 µg/mL); against Escherichia coli 078, 8 µM (≈ 13 µg/mL); in [1], 8 µM (≈ 13 µg/mL); with Escherichia coli K88, 2 µM (≈ 3.25 µg/mL); in the assay with Escherichia coli K99, 4 µM (≈ 6.51 µg/mL). In addition, the minimal inhibitory concentration (MIC) in the assay with Escherichia coli UB1005 is 8 µM (≈ 13 µg/mL); in assay [13], 2 µM (≈ 3.25 µg/mL); in assay [6] it was 32 µM (≈ 52.1 µg/mL); in assay [14] it was not below 32 µM; in assay [4], 32 µM (≈ 52.1 µg/mL); in [15] it was 32 µM (≈ 52.1 µg/mL). Also, the minimal inhibitory concentration (MIC) in [16] came out at 64 µM (≈ 104 µg/mL).
With `NC(N)=NCCC[C@H](NC(=O)[C@@H](N)CO)C(=O)N[C@@H](Cc1c[nH]c2ccccc12)C(=O)N1CCC[C@H]1C(=O)N[C@@H](CO)C(=O)N1CCC[C@H]1C(=O)NCC(=O)N[C@@H](CCCN=C(N)N)C(=O)N1CCC[C@H]1C(=O)N[C@@H](CCCN=C(N)N)C(=O)N1CCC[C@H]1C(=O)N[C@@H](Cc1ccccc1)C(=O)N1CCC[C@H]1C(=O)NCC(=O)O` [SRWPSPGRPRPFPG], the MIC in assay [7] is not below 100 µM; in [1], more than 100 µM; with Escherichia coli HB101, not below 100 µM; in assay [2], more than 100 µM; in assay [8], not below 100 µM.

In general, MIC refers to the least concentration at which growth counts as inhibited. A low value points to a more susceptible organism.
